± gives the uncertainty stated by the source.
Assay: xn = mol fraction of the nth substance listed

OCCOCCOCCO + O
Conditions	viscosity [mPa·s]
293.15 K, 100 kPa, x2 = 0.05	46.03 ± 0.86
293.15 K, 100 kPa, x2 = 0.094	44.8 ± 0.82
298.15 K, 100 kPa, x2 = 0.014	37.14 ± 0.62
298.15 K, 100 kPa, x2 = 0.094	34.66 ± 0.57
298.15 K, 101.33 kPa, x1 = 0.0824	3.65 ± 0.1
298.15 K, 101.33 kPa, x1 = 0.1678	8.7 ± 0.23
298.15 K, 101.33 kPa, x1 = 0.35	19.77 ± 0.52
303.15 K, 100 kPa, x2 = 0.05	28.19 ± 0.44
303.15 K, 100 kPa, x2 = 0.094	27.25 ± 0.4
303.15 K, 100 kPa, x2 = 0.112	27.95 ± 0.96
303.15 K, 101 kPa, x1 = 0.05023	2.114 ± 0.081
303.15 K, 101 kPa, x1 = 0.1004	4.102 ± 0.084
303.15 K, 101 kPa, x1 = 0.1518	6.604 ± 0.089
303.15 K, 101 kPa, x1 = 0.2006	9.27 ± 0.095
303.15 K, 101 kPa, x1 = 0.2528	11.91 ± 0.11
303.15 K, 101 kPa, x1 = 0.2995	14.77 ± 0.11
303.15 K, 101 kPa, x1 = 0.3928	18.53 ± 0.13
303.15 K, 101 kPa, x1 = 0.5013	21.84 ± 0.15
303.15 K, 101 kPa, x1 = 0.5995	24.34 ± 0.17
303.15 K, 101 kPa, x1 = 0.6648	25.69 ± 0.18
303.15 K, 101 kPa, x1 = 0.7981	27.13 ± 0.2
303.15 K, 101 kPa, x1 = 0.8445	27.86 ± 0.21
303.15 K, 101 kPa, x1 = 0.8998	28.37 ± 0.22
303.15 K, 101 kPa, x1 = 0.954	28.74 ± 0.22
303.15 K, 101.33 kPa, x1 = 0.0004	0.781 ± 0.011
303.15 K, 101.33 kPa, x1 = 0.0008	0.788 ± 0.011
303.15 K, 101.33 kPa, x1 = 0.0014	0.798 ± 0.011
303.15 K, 101.33 kPa, x1 = 0.0024	0.82 ± 0.011
303.15 K, 101.33 kPa, x1 = 0.0056	0.875 ± 0.012
303.15 K, 101.33 kPa, x1 = 0.011	0.986 ± 0.013
303.15 K, 101.33 kPa, x1 = 0.0317	1.48 ± 0.019
303.15 K, 101.33 kPa, x1 = 0.0563	2.254 ± 0.028
303.15 K, 101.33 kPa, x1 = 0.0988	4.058 ± 0.049
303.15 K, 101.33 kPa, x1 = 0.1954	8.931 ± 0.096
303.15 K, 101.33 kPa, x1 = 0.2932	14.1 ± 0.14
303.15 K, 101.33 kPa, x1 = 0.3871	18.23 ± 0.18
303.15 K, 101.33 kPa, x1 = 0.5032	22.21 ± 0.22
303.15 K, 101.33 kPa, x1 = 0.5991	24.2 ± 0.24
303.15 K, 101.33 kPa, x1 = 0.6914	26.06 ± 0.25
303.15 K, 101.33 kPa, x1 = 0.7941	27.17 ± 0.26
308.15 K, 100 kPa, x2 = 0.05	22.55 ± 0.32
308.15 K, 100 kPa, x2 = 0.094	21.88 ± 0.29
308.15 K, 100 kPa, x2 = 0.112	22.44 ± 0.69
308.15 K, 101 kPa, x1 = 0.05023	1.848 ± 0.081
308.15 K, 101 kPa, x1 = 0.1004	3.491 ± 0.083
308.15 K, 101 kPa, x1 = 0.1518	5.543 ± 0.087
308.15 K, 101 kPa, x1 = 0.2006	7.668 ± 0.092
308.15 K, 101 kPa, x1 = 0.2528	9.722 ± 0.099
308.15 K, 101 kPa, x1 = 0.2995	11.99 ± 0.11
308.15 K, 101 kPa, x1 = 0.3928	14.94 ± 0.12
308.15 K, 101 kPa, x1 = 0.5013	17.51 ± 0.14
308.15 K, 101 kPa, x1 = 0.5995	19.48 ± 0.15
308.15 K, 101 kPa, x1 = 0.6648	20.58 ± 0.16
308.15 K, 101 kPa, x1 = 0.7981	21.8 ± 0.17
308.15 K, 101 kPa, x1 = 0.8445	22.32 ± 0.18
308.15 K, 101 kPa, x1 = 0.8998	22.65 ± 0.19
308.15 K, 101.33 kPa, x1 = 0.0004	0.707 ± 0.01
308.15 K, 101.33 kPa, x1 = 0.0008	0.714 ± 0.01
308.15 K, 101.33 kPa, x1 = 0.0014	0.725 ± 0.01
308.15 K, 101.33 kPa, x1 = 0.0024	0.736 ± 0.01

From the CheMixHub viscosity set
